According to PubChem BioAssay (NCI):
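How tested: cells in 96-well plates exposed to compound for 48 hours at five concentrations. TGI: concentration producing complete growth inhibition.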

Tests used:
Test in all cases: growth of human tumour cells (NCI), 48 h
SK-MEL-2 melanoma = test system: SK-MEL-2 melanoma
OVCAR-8 ovarian = test system: OVCAR-8 ovarian
NCI/ADR-RES ovarian = test system: NCI/ADR-RES ovarian
HT29 colon = test system: HT29 colon
MALME-3M melanoma = test system: MALME-3M melanoma
NCI-H226 lung = test system: NCI-H226 lung
SK-MEL-28 melanoma = test system: SK-MEL-28 melanoma
NCI-H522 lung = test system: NCI-H522 lung
UACC-257 melanoma = test system: UACC-257 melanoma
KM12 colon = test system: KM12 colon
786-0 renal = test system: 786-0 renal
SF-539 CNS = test system: SF-539 CNS
TK-10 renal = test system: TK-10 renal
SNB-19 CNS = test system: SNB-19 CNS
HCT-15 colon = test system: HCT-15 colon
A549 NSCLC = test system: A549 NSCLC
COLO 205 colon = test system: COLO 205 colon
SN12C renal = test system: SN12C renal
MDA-MB-435 = test system: MDA-MB-435
UO-31 renal = test system: UO-31 renal
HOP-92 NSCLC = test system: HOP-92 NSCLC
PC-3 prostate = test system: PC-3 prostate
MCF7 breast = test system: MCF7 breast
K-562 leukemia = test system: K-562 leukemia
HCT-116 colon = test system: HCT-116 colon
SK-MEL-5 melanoma = test system: SK-MEL-5 melanoma
LOX IMVI melanoma = test system: LOX IMVI melanoma
MDA-MB-231 breast = test system: MDA-MB-231 breast
HOP-62 NSCLC = test system: HOP-62 NSCLC
ACHN renal = test system: ACHN renal
T-47D breast = test system: T-47D breast
UACC-62 melanoma = test system: UACC-62 melanoma
IGROV1 ovarian = test system: IGROV1 ovarian
HCC-2998 colon = test system: HCC-2998 colon
A498 renal = test system: A498 renal
RPMI-8226 leukemia = test system: RPMI-8226 leukemia
U251 CNS = test system: U251 CNS
NCI-H460 lung = test system: NCI-H460 lung
CAKI-1 renal = test system: CAKI-1 renal
MDA-N = test system: MDA-N
M14 melanoma = test system: M14 melanoma
OVCAR-5 ovarian = test system: OVCAR-5 ovarian
HL-60(TB) leukemia = test system: HL-60(TB) leukemia
HS 578T breast = test system: HS 578T breast
OVCAR-3 ovarian = test system: OVCAR-3 ovarian
OVCAR-4 ovarian = test system: OVCAR-4 ovarian
BT-549 breast = test system: BT-549 breast
SNB-75 CNS = test system: SNB-75 CNS
SW-620 colon = test system: SW-620 colon
CCRF-CEM leukemia = test system: CCRF-CEM leukemia
EKVX NSCLC = test system: EKVX NSCLC
SK-OV-3 ovarian = test system: SK-OV-3 ovarian
DU-145 prostate = test system: DU-145 prostate
SF-295 CNS = test system: SF-295 CNS
SF-268 CNS = test system: SF-268 CNS
NCI-H23 lung = test system: NCI-H23 lung
RXF 393 renal = test system: RXF 393 renal
MOLT-4 leukemia = test system: MOLT-4 leukemia

## COc1ccc2nccc(/C=C/c3ccc(N(C)C)cc3)c2c1
SK-MEL-2 melanoma
  TGI: > 10 µM
OVCAR-8 ovarian
  TGI: > 10 µM
NCI/ADR-RES ovarian
  TGI: > 10 µM
HT29 colon
  TGI: > 10 µM
MALME-3M melanoma
  TGI: > 10 µM
NCI-H226 lung
  TGI: > 10 µM
SK-MEL-28 melanoma
  TGI: > 10 µM
NCI-H522 lung
  TGI: > 10 µM
UACC-257 melanoma
  TGI: > 10 µM
KM12 colon
  TGI: > 10 µM
786-0 renal
  TGI: > 10 µM
SF-539 CNS
  TGI: > 10 µM
TK-10 renal
  TGI: > 10 µM
SNB-19 CNS
  TGI: > 10 µM
HCT-15 colon
  TGI: > 10 µM
A549 NSCLC
  TGI: > 10 µM
COLO 205 colon
  TGI: > 10 µM
SN12C renal
  TGI: > 10 µM
MDA-MB-435
  TGI: 7.49 µM
UO-31 renal
  TGI: > 10 µM
HOP-92 NSCLC
  TGI: > 10 µM
PC-3 prostate
  TGI: > 10 µM
MCF7 breast
  TGI: > 10 µM
K-562 leukemia
  TGI: > 10 µM
HCT-116 colon
  TGI: > 10 µM
SK-MEL-5 melanoma
  TGI: > 10 µM
LOX IMVI melanoma
  TGI: > 10 µM
MDA-MB-231 breast
  TGI: > 10 µM
HOP-62 NSCLC
  TGI: > 10 µM
ACHN renal
  TGI: > 10 µM
T-47D breast
  TGI: > 10 µM
UACC-62 melanoma
  TGI: > 10 µM
IGROV1 ovarian
  TGI: > 10 µM
HCC-2998 colon
  TGI: > 10 µM
A498 renal
  TGI: > 10 µM
RPMI-8226 leukemia
  TGI: > 10 µM
U251 CNS
  TGI: > 10 µM
NCI-H460 lung
  TGI: > 10 µM
CAKI-1 renal
  TGI: > 10 µM
MDA-N
  TGI: > 10 µM
M14 melanoma
  TGI: > 10 µM
OVCAR-5 ovarian
  TGI: > 10 µM
HL-60(TB) leukemia
  TGI: > 10 µM
HS 578T breast
  TGI: > 10 µM
OVCAR-3 ovarian
  TGI: > 10 µM
OVCAR-4 ovarian
  TGI: > 10 µM
BT-549 breast
  TGI: > 10 µM
SNB-75 CNS
  TGI: > 10 µM
SW-620 colon
  TGI: > 10 µM
CCRF-CEM leukemia
  TGI: > 10 µM
EKVX NSCLC
  TGI: > 10 µM
SK-OV-3 ovarian
  TGI: > 10 µM
DU-145 prostate
  TGI: > 10 µM
SF-295 CNS
  TGI: > 10 µM
SF-268 CNS
  TGI: > 10 µM
NCI-H23 lung
  TGI: > 10 µM
RXF 393 renal
  TGI: > 10 µM
MOLT-4 leukemia
  TGI: > 10 µM
